Measurements as given in patent US20250295577A1, “EXTRACT OF YOUNG FLOWERS AND COSMETIC USES” (SOCIETE INDUSTRIELLE LIMOUSINE D'APPLICATION BIOLOGIQUE, priority 2021, published 2025).

Test system: human fibroblasts derived from older donors
Experiment: Cell migration of human fibroblasts (wound, crystal violet, occupied surface)
Assay type: cell-based
Details: for Cell migration: vs older control (Table 5)
Experimental: Cell migration is the ability of certain cells to move. In vitro, it is evaluated by the number of cells covering a surface that is initially empty (Kim et al., 2015; Lampugnani, 1999). The migratory capacity of the cells is reduced with age (Boulter et al., 2013).
Their action was studied on a human fibroblast culture derived from older donors.
On D0, the human fibroblasts are seeded and incubated at 37° C.
After several days of culture, the insert is removed from the culture chamber, creating a wound. The cells are treated with an active ingredient according to the invention or the red flower extract or a solution of N-(1-deoxy-1-fructosyl)-proline then incubated at 37° C.
After several days of culture, the cells are stained with a crystal violet solution at 0.5% (M/V). The viewing is done with an AxioCam MRc camera with microscope coupled to an image analysis system.
The surface ratio occupied by the cells is calculated automatically using software.

## O=C(CN1CCCC1C(=O)O)C(O)C(O)C(O)CO (stereo not shown) [N-(1-deoxy-1-fructosyl)-proline]
1.5 ppm (Table 5)
  Occupied surface ratio: 0.266 UA
1.5 ppm
  Cell migration: 0%
5 ppm (Table 5)
  Occupied surface ratio: 0.328 UA
5 ppm
  Cell migration: +19%
